The values below come from patent US7173034B2, “Respiratory syncytial virus replication inhibitors” (Janssen Pharmaceutica, N.V., priority 1999, dated 2007).

In data set [1] the test system is Respiratory Syncytial Virus. The data set is described as follows: microbe, parasite or virus in culture. It is filed as cell-based. To be noted: for SI (selectivity index, CC50 divided by IC50): CC50 (HeLa cells) / IC50 (Respiratory Syncytial Virus); for IC50: human respiratory syncytial virus, 168 h, Respiratory Syncytial Virus in HeLa cells, seven days after infection, tetrazolium-based colorimetric assay, read-out: IC50 (antiviral activity, protection against cytopathology caused by virus). On the procedure:
(§1) The percent protection against cytopathology caused by viruses (antiviral activity or IC50) achieved by tested compounds and their cytotoxicity (CC50) were both calculated from dose-response curves.
Automated tetrazolium-based colorimetric assays were used for determination of IC50 and CC50 of test compounds. Flat-bottom, 96-well plastic microtiter trays were filled with 180 μl of Eagle's Basal Medium, supplemented with 5% FCS (0% for FLU) and 20 mM Hepes buffer. Subsequently, stock solutions (7.8× final test concentration) of compounds were added in 45 μl volumes to a series of triplicate wells so as to allow simultaneous evaluation of their effects on virus- and mock-infected cells. Five five-fold dilutions were made directly in the microtiter trays using a robot system. Untreated virus controls, and HeLa cell controls were included in each test. Approximately 100 TCID50 of Respiratory Syncytial Virus was added to two of the three rows in a volume of 50 μl. The same volume of medium was added to the third row to measure the cytotoxicity of the compounds at the same concentrations as those used to measure the antiviral activity. After two hours of incubation, a suspension (4×10^5 cells/ml) of HeLa cells were added to all wells in a volume of 50 μl. The cultures were incubated at 37° C. in a 5% CO2 atmosphere. Seven days after infection the cytotoxicity and the antiviral activity was examined spectrophotometrically. To each well of the microtiter tray, 25 μl of a solution of MTT (3-(4,5-dimethylthiazol-2-yl)-2,5-diphenyltetrazolium bromide) was added. The trays were further incubated at 37° C. for 2 hours, after which the medium was removed from each cup. Solubilization of the formazan crystals was achieved by adding 100 μl 2-propanol. Complete dissolution of the formazan crystals were obtained after the trays have been placed on a plate shaker for 10 min. Finally, the absorbances were read in an eight-channel computer-controlled photometer (Multiskan MCC, Flow Laboratories) at two wavelengths (540 and 690 nm). The absorbance measured at 690 nm was automatically subtracted from the absorbance at 540 nm, so as to eliminate the effects of non-specific absorption.

Data set [2] in a line: Cytotoxicity in mock-infected HeLa cells (tetrazolium/MTT colorimetric assay). It is filed as cell-based. To be noted: human. On the procedure: as §1
Automated tetrazolium-based colorimetric assays were used for determination of IC50 and CC50 of test compounds. Flat-bottom, 96-well plastic microtiter trays were filled with 180 μl of Eagle's Basal Medium, supplemented with 5% FCS (0% for FLU) and 20 mM Hepes buffer. Subsequently, stock solutions (7.8× final test concentration) of compounds were added in 45 μl volumes to a series of triplicate wells so as to allow simultaneous evaluation of their effects on virus- and mock-infected cells. Five five-fold dilutions were made directly in the microtiter trays using a robot system. Untreated virus controls, and HeLa cell controls were included in each test. Approximately 100 TCID50 of Respiratory Syncytial Virus was added to two of the three rows in a volume of 50 μl. […] Finally, the absorbances were read in an eight-channel computer-controlled photometer (Multiskan MCC, Flow Laboratories) at two wavelengths (540 and 690 nm). The absorbance measured at 690 nm was automatically subtracted from the absorbance at 540 nm, so as to eliminate the effects of non-specific absorption.
A general note: Formazan colour is commonly taken as a measure of viable cells.

As to `O=CNCCN1CCC(Nc2nc3ccccc3n2Cc2ccccn2)CC1` [Compound 18], the melting point stood at 146 °C.

As to `CCC(CN)N1CCC(Nc2nc3ccccc3n2Cc2ccccn2)CC1` (centres unmarked) [Compound 23], the melting point was 112 °C. Take `CC(C)C(N)CN1CCC(Nc2nc3ccccc3n2Cc2ccccn2)CC1` (centres unmarked) [Compound 24]: the melting point amounted to 115 °C. For `Cc1ccc(OCCO)c(Cn2c(NC3CCN(CCN)CC3)nc3ccccc32)n1` [Compound 27], in data set [1], the “SI (selectivity index, CC50 divided by IC50)” value was greater than 7943 and the IC50 stood at 12.6 nM. Besides, the CC50 at 7 days in data set [2] was greater than 100000 nM. As to `CC(CN)N1CCC(Nc2nc3ccccc3n2C(C)c2ccccn2)CC1` (centres unmarked) [Compound 30], the melting point came to 85 °C. The same measure, in the same setting: to `NCCCCN1CCC(Nc2nc3ccccc3n2Cc2ccccn2)CC1` [Compound 31] belongs 94 °C. For the compound `Cc1ccc(O)c(Cn2c(NC3CCN(CCN)CC3)nc3c(C)cccc32)n1` [Compound 357], in data set [1], the “SI (selectivity index, CC50 divided by IC50)” value is greater than 79 and the IC50 came out at 0.13 nM. For the same compound, the CC50 at 7 days in data set [2] (mock-infected HeLa cells, seven days, tetrazolium-based colorimetric assay) is greater than 10 nM.

By melting point is commonly meant the temperature, or range, at which the solid turns liquid. Broadly, the IC50 is the concentration that inhibits the measured activity by half. As a reminder, the CC50 is the concentration at which the toxic effect on the cells reaches its halfway point. Low values mean greater toxicity to the cells, high ones lower toxicity to the cells.
